Key:
[1] = DTA
[2] = Molar enthalpy of transition or fusion; conditions: DSC
[3] = molar heat capacity at constant pressure; conditions: 101.33 kPa, Crystal 4, Small sample (50 mg) DSC

CCN1C(=O)CC(=O)N(CC)C1=S [1,3-diethyl-2-thiobarbituric acid]
Conditions	Molar enthalpy of transition or fusion [kJ/mol]	Triple point temperature [K]	molar heat capacity at constant pressure [J/K/mol]
[1], Crystal	–	377.1	–
[2], Crystal	35.5	–	–
[3], 265.15 K	–	–	213.5
[3], 270.15 K	–	–	217.3
[3], 273.15 K	–	–	219.8
[3], 275.15 K	–	–	221.2
[3], 280.15 K	–	–	224.5
[3], 285.15 K	–	–	227.7
[3], 290.15 K	–	–	230.4
[3], 295.15 K	–	–	233.7
[3], 298.15 K	–	–	236.9
[3], 300.15 K	–	–	238.9
[3], 305.15 K	–	–	240.8
[3], 310.15 K	–	–	244.8
[3], 315.15 K	–	–	249.8
[3], 320.15 K	–	–	252.9
[3], 325.15 K	–	–	256.1
[3], 330.15 K	–	–	259.7
[3], 335.15 K	–	–	263.1
[3], 340.15 K	–	–	266.5
[3], 345.15 K	–	–	269.7
[3], 350.15 K	–	–	273.3
[3], 355.15 K	–	–	277.8
[3], 360.15 K	–	–	282.3
[3], 365.15 K	–	–	287.2

Oc1cc(O)nc(S)n1 [2-mercapto-4,6-pyrimidinediol]
Conditions	Molar enthalpy of transition or fusion [kJ/mol]	Triple point temperature [K]	molar heat capacity at constant pressure [J/K/mol]
[1], Crystal 1	–	516.4	–
[1], Crystal 2	–	498	–
[1], Crystal 3	–	475.8	–
[1], Crystal 4	–	447.2	–
[2], Crystal 1	14.8	–	–
[2], Crystal 2	0.3	–	–
[2], Crystal 3	0.2	–	–
[2], Crystal 4	0.7	–	–
[3], 265.15 K	–	–	124.3
[3], 270.15 K	–	–	126.6
[3], 273.15 K	–	–	128
[3], 275.15 K	–	–	128.8
[3], 280.15 K	–	–	131.1
[3], 285.15 K	–	–	132.5
[3], 290.15 K	–	–	134.2
[3], 295.15 K	–	–	136.2
[3], 298.15 K	–	–	137.2
[3], 300.15 K	–	–	138.6
[3], 305.15 K	–	–	140
[3], 310.15 K	–	–	142.2
[3], 315.15 K	–	–	144.7
[3], 320.15 K	–	–	146.3
[3], 325.15 K	–	–	147.9
[3], 330.15 K	–	–	150.1
[3], 335.15 K	–	–	152
[3], 340.15 K	–	–	153.8
[3], 345.15 K	–	–	155.2
[3], 350.15 K	–	–	156.6
[3], 355.15 K	–	–	158.4
[3], 360.15 K	–	–	160.2
[3], 365.15 K	–	–	162.6
[3], 370.15 K	–	–	164.7
[3], 375.15 K	–	–	166
[3], 380.15 K	–	–	167.7
[3], 385.15 K	–	–	169.2
[3], 390.15 K	–	–	171
[3], 395.15 K	–	–	172.3
[3], 400.15 K	–	–	174.8
[3], 405.15 K	–	–	175.9
[3], 410.15 K	–	–	177.2
[3], 415.15 K	–	–	178.5
[3], 420.15 K	–	–	179.8
[3], 425.15 K	–	–	181.3
[3], 430.15 K	–	–	182.9

Reference: the NIST ThermoML archive (doi:10.1021/je200420u)
